Measured values taken from the METLIN SMRT retention time set (Domingo-Almenara et al. 2019).

Experiment: gradient 5% acetonitrile 3 min, to 50% in 2 min, to 85% in 15 min, held 3 min, 100 µL/min
Details: column: Zorbax Extend-C18 2.1 x 50 mm; eluents: water / acetonitrile, 0.1% formic acid
Outline: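 Pure standards were analyzed in mixtures of ~100 molecules using HPLC coupled to a quadrupole time-of-flight mass spectrometer, in both positive and negative ionization mode. Separation used a Zorbax Extend-C18 column (2.1 × 50 mm, 1.8 μm) at 100 μL/min, with water and acetonitrile each containing 0.1% formic acid. Dead and dwell volumes were 40 μL and 900 μL, and data were collected over 3 months. Retention time was read from computationally picked adduct peaks, each inspected manually.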

SMILES | RP-LC retention time [s]
CC(C)n1nc(CNC(=O)c2ccsc2)c2ccccc21 | 800
CCN1CCn2cc(S(=O)(=O)Nc3cc(F)ccc3F)cc2C1=O | 715
O=C(NCCCN1CCCC1=O)C(=O)NCCC1=CCCCC1 | 686
Cc1ccc(NC(=O)C2CCCN2S(=O)(=O)c2cc3c(cc2Cl)NC(=O)CO3)cc1F (configuration not stated) | 844
CCNC(=O)N1CCCC(c2cccc(C(=O)NCc3ccc(C)o3)c2)C1 (configuration not stated) | 774
CCOc1ccc(-c2csc(Cc3nc(-c4ccc5c(c4)OCO5)no3)n2)cc1 | 1200
CCN(C(=O)c1cccc(OC)c1)c1nc(-c2ccccc2)cs1 | 1270
Cc1cccc(OCC(=O)Nc2c(C(=O)N3CCN(c4ccccn4)CC3)oc3ccccc23)c1 | 800
CCn1nccc1C(=O)N1CCCC1c1ccccc1Cl (configuration not stated) | 849
Cc1cc([N+](=O)[O-])nn1CC(=O)NCc1cccs1 | 572
Cc1cc(C)n2c(Nc3ccc(C(C)C)cc3)c(-c3ccc(Cl)cc3)nc2n1 | 985
Cc1nc(-c2cnccn2)n(CC(=O)Nc2ccc(F)cc2)c(=O)c1C | 709
Cc1coc2cc3oc(=O)c(CC(=O)N[C@H](Cc4c[nH]c5ccccc45)C(=O)O)c(C)c3cc12 | 772
N#Cc1ccc(C(=O)N2CCN(c3cc(-c4cccs4)[nH]n3)CC2)cc1 | 749
COc1ccc(Cl)cc1NC(=O)N1CCC(c2cc(N)on2)CC1 | 760
O=C(CCN1C(=O)c2ccccc2C1=O)OCC(=O)c1ccc(Cl)cc1Cl | 954
Cn1nccc1-c1cccc(-c2noc(/C=C/c3ccccc3)n2)c1 | 1160
O=C(Cn1nc2n(c1=O)CCCCC2)Nc1ccc(C(F)(F)F)cc1 | 764
Cn1c(CNC(=O)CSc2nnc3c4ccccc4nc(-c4ccco4)n23)nc2ccccc21 | 632
COc1ccc(Cl)cc1C(=O)N1CCN(c2ccc(-c3nc(C)cs3)cn2)CC1 | 909
Nc1nc(-c2ccccc2)nn1C(=O)c1ccc(F)cc1 | 974
COc1ccc(-c2cn3ccn(-c4ccc(OC)cc4)c(=O)c3n2)cc1 | 768
COc1ccc(OC)c(C(C)NC(=O)C2CCCN(c3nccnc3Oc3ccccc3)C2)c1 (configuration not stated) | 998

SMILES | RP-LC retention time [s]
Cc1ccccc1OCC(=O)NC[C@@]12CCC[C@H]1N(C)C(=O)CC2 | 755
CCC(C)NC(=O)N1CC=C(c2cn(C(C)C)c3ncccc23)CC1 (configuration not stated) | 821
O=C1CC(C(F)(F)F)c2c(c(C(=O)O)cn2-c2cccc(Cl)c2)N1 (configuration not stated) | 786
O=C(CN1Cc2ccccc2C1=O)N[C@@H](Cc1c[nH]c2ccccc12)C(=O)O | 661
Cc1ccc(CS(=O)(=O)N2CCC(c3cc(N)on3)CC2)cc1C | 826
C=C1C(=O)O[C@@H]2[C@H]3O[C@]3(C)CCC=C(C)CC[C@@H]12 | 844
CCCn1cc(CCNC(=O)c2ccc(F)cc2)c2cccnc21 | 732
Cc1nc(-c2ccncc2)nc2c1CCC(=O)N2Cc1ccco1 | 666
CCCN1C(=O)COc2ccc(-c3csc(NC(=O)COc4ccc(Cl)cc4Cl)n3)cc21 | 1210
O=C(NC1CC1)C1(CCO)CCN(Cc2ccccc2)C1 (configuration not stated) | 564
Cc1ccc(CN2C(=O)C3CCCN3C(=O)c3ccccc32)cc1 (configuration not stated) | 797
CN(Cc1nc2cc(C(=O)N3CCCC3)ccc2n1C)C(=O)Nc1ccc(F)cc1F | 607
Cc1cc(Cl)ccc1S(=O)(=O)N1CCCC1c1nncn1-c1ccccc1 (configuration not stated) | 845
Cc1nn2c(N3CCN(c4ccccn4)CC3)c3c(nc2c1-c1ccccc1)CCC3 | 720
O=C(NCC1CCCO1)c1coc(NC(=O)C2CC2)n1 (configuration not stated) | 571
CC1CCN(C(=O)Cn2c(=O)n(-c3ccc(F)cc3)c3ncccc32)CC1 | 834
CCN(CC)C(=O)c1ccc2c(c1)N(CC(=O)N1CCOCC1)C(=O)CS2 | 642
COc1cc(Cl)c(C)cc1NC(=O)C1CCCN(c2nc3ccccc3nc2OC)C1 (configuration not stated) | 1380
O=C(O)c1ccccc1-c1ccccc1C(=O)Nc1ccc2c(c1)Cc1ccccc1-2 | 939
CCc1cc(C(=O)Nc2ccc(OC)c(Cl)c2)nc2ccnn12 | 1040
COc1cccc(-c2nc(C3CCN(S(=O)(=O)c4ccccc4)CC3)no2)c1 | 1070
O=C(NCc1n[nH]c(=O)c2ccccc12)C(=O)N1CCN(c2ccccc2)CC1 | 658
CCc1ccc(NC(=O)Cn2cnc3onc(C)c3c2=O)cc1 | 843

SMILES | RP-LC retention time [s]
CCOc1ccccc1-c1noc(-c2nn(-c3ccc(C)cc3)ccc2=O)n1 | 923
O=C(CCn1cnc2cc(-c3noc(-c4ccc(Br)o4)n3)ccc21)N1CCCCC1 | 796
Cc1ccc(CN2CCN(C3CCN(C(=O)Nc4ccc5c(c4)OCO5)CC3)C2=O)cc1 | 841
COc1cccc(-c2noc(Cn3c(=O)n(-c4cccc(OC)c4)c(=O)c4sccc43)n2)c1 | 970
O=c1ccc(-c2ccccc2)nn1CCc1nc(-c2cccc(Br)c2)no1 | 1090
COc1ccc(OC)c(NC(=O)c2cnc(-c3ccc(F)cc3)nc2-c2ccncc2)c1 | 915
CC(C)NC(=O)NCCC1CCN(S(=O)(=O)c2ccccc2)CC1 | 732
CCCNC(=O)CN1CCN(Cc2ccc(F)cc2)C1=O | 688
Cc1nc(-c2ccc3c(c2)n(CC(=O)NC2CCCCC2)c(=O)n3C(C)C)no1 | 857
CCS(=O)(=O)c1ccccc1C(=O)Nc1sc(-c2ccccc2)cc1C(N)=O | 814
CCc1noc(-c2ccnc(-n3ncc(C(=O)NC4CCCC4)c3C)c2)n1 | 687
Cc1csc(-c2ccc(N3CCN(C(=O)c4ccc5c(c4)OCO5)CC3)nc2)n1 | 791
Cc1ccc(NC(=O)N2CCC(n3cnc4cccnc43)CC2)cc1F | 682
Cc1ccc(C(=O)N(C)Cc2cccnc2Oc2ccccc2)cn1 | 861
Cc1cncn(CC(=O)NC2CCCC2)c1=O | 576
COc1ccc(Cl)cc1NC(=O)Cn1c(=O)n(-c2ccc(C)cc2)c(=O)c2c1cc(C)n2C | 984
CCCN1C(=O)c2ccccc2Sc2cc(-c3noc(CNC(=O)c4cccs4)n3)ccc21 | 999
Cc1cccc2c(=O)n(C3CCN(C(=O)Nc4ccc(F)cc4F)CC3)cnc12 | 770
CCOC(=O)C1=C(C)NC2=C(C(=O)CCC2)C1c1ccc(OC)c(OC)c1OC (configuration not stated) | 727
Fc1ccc(OCc2nnc3sc(-c4ccc(Cl)cc4)nn23)cc1 | 1030
COc1ccc(NC(=O)NC2CCN(c3ccc(F)cc3)C2=O)c(OC)c1 (configuration not stated) | 716
